# Data published in patent publication US20240041828A1, “Combination Therapeutics Comprising Nrf2 Agonists and Antivirals for Treating Viral Infections” (The Regents of the University of California, priority 2022, published 2024).
# Entries after “also recorded” stand apart in the source; their conditions may differ. Where a name gives a salt, the structure may show the parent alone. Read-outs that look alike come from different tables or passages of the source.
# What was measured:
# Type in all cases: cell-based
# [1] = system: SARS-coV-2 Omicron variant
# [2] = system: B.1.617.2 (Delta) SARS-CoV-2 variant
# [3] = system: B.1.617.2 (Delta) SARS-CoV-2 variant; experiment: microbe, parasite or virus in culture; conditions: for IC50: Severe acute respiratory syndrome coronavirus 2, A549
Compound,IC50 compared to comparator drug [1],"anti-SARS-CoV-2 activity (words, figure legend) [1]","drug interaction (words, figure legend) [2]",IC50 compared to comparator drug [3],"anti-SARS-CoV-2 activity (words, figure legend) [3]",IC50 [3],better antiviral effect in ALI HAE system compared to Paxlovid ([1]; ALI HAE system),"anti-SARS-CoV-2 activity (words, figure legend) ([1]; methanesulfonate)","drug interaction (words, figure legend) ([2]; methanesulfonate)",IC50 compared to comparator drug ([3]; methanesulfonate),"anti-SARS-CoV-2 activity (words, figure legend) ([3]; methanesulfonate)"
"COC(=O)/C=C/C(=O)OC [DMF, Dimethyl fumarate]",IC50 that was similar to Paxlovid™; also recorded: higher than molnupiravir IC50,stronger anti-SARS-CoV-2 activity in multilayer human airway cell culture than molnupiravir,additive anti-SARS-CoV-2 activity with Paxlovid™; also recorded: additive anti-SARS-CoV-2 activity with molnupiravir,higher IC50 compared to Paxlovid™; also recorded: higher IC50 compared to molnupiravir,anti-SARS-CoV-2 activity in single layer human airway cells that is lower than Paxlovid™; also recorded: strong anti-SARS-CoV-2 activity in single layer human airway cells that is higher than molnupiravir,16.7 µM,–,–,–,–,–
"COC1=C(OC)C(=O)C(CCCCCCCCCC[P+](c2ccccc2)(c2ccccc2)c2ccccc2)=C(C)C1=O.CS(=O)(=O)[O-] [Mito-MES, 10-(4,5-dimethoxy-2-methyl-3,6-dioxo-1,4-cyclohexadienyl) decyl triphenylphosphonium methanesulfonate]",higher than Paxlovid™ IC50,–,–,–,–,0.144 µM,about 1000 fold,stronger anti-SARS-CoV-2 activity in multilayer human airway cell culture than Paxlovid™; also recorded: stronger anti-SARS-CoV-2 activity in multilayer human airway cell culture than molnupiravir,additive anti-SARS-CoV-2 activity with Paxlovid™; also recorded: additive anti-SARS-CoV-2 activity with molnupiravir,higher IC50 compared to molnupiravir,strong anti-SARS-CoV-2 activity in single layer human airway cells that is similar to Paxlovid™; also recorded: strong anti-SARS-CoV-2 activity in single layer human airway cells that is higher than molnupiravir
"CC(C)C(=O)OC[C@H]1O[C@@H](n2ccc(NO)nc2=O)[C@H](O)[C@@H]1O [molnupiravir, Molnupiravir]",–,–,–,–,–,31 µM,–,–,–,–,–
